Measured values reported in PubChem BioAssay (NCI).
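Results reflect a 48-hour exposure of cells in 96-well plates to compound at five concentrations. Abbreviation: GI50, concentration required for 50% inhibition of growth. TGI: concentration producing complete growth inhibition.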

Tests used:
Assay in all cases: NCI tumour cell line growth inhibition, 48 h
DU-145 prostate = system: DU-145 prostate
BT-549 breast = system: BT-549 breast
A549 NSCLC = system: A549 NSCLC
SW-620 colon = system: SW-620 colon
SK-MEL-28 melanoma = system: SK-MEL-28 melanoma
SR leukemia = system: SR leukemia
M14 melanoma = system: M14 melanoma
HCC-2998 colon = system: HCC-2998 colon
HL-60(TB) leukemia = system: HL-60(TB) leukemia
UACC-62 melanoma = system: UACC-62 melanoma
SK-MEL-5 melanoma = system: SK-MEL-5 melanoma
TK-10 renal = system: TK-10 renal
UACC-257 melanoma = system: UACC-257 melanoma
RXF 393 renal = system: RXF 393 renal
RPMI-8226 leukemia = system: RPMI-8226 leukemia
HS 578T breast = system: HS 578T breast
NCI-H460 lung = system: NCI-H460 lung
786-0 renal = system: 786-0 renal
LOX IMVI melanoma = system: LOX IMVI melanoma
CAKI-1 renal = system: CAKI-1 renal
KM12 colon = system: KM12 colon
EKVX NSCLC = system: EKVX NSCLC
OVCAR-3 ovarian = system: OVCAR-3 ovarian
OVCAR-8 ovarian = system: OVCAR-8 ovarian
T-47D breast = system: T-47D breast
SK-OV-3 ovarian = system: SK-OV-3 ovarian
NCI-H23 lung = system: NCI-H23 lung
SF-295 CNS = system: SF-295 CNS
ACHN renal = system: ACHN renal
SNB-75 CNS = system: SNB-75 CNS
SNB-19 CNS = system: SNB-19 CNS
OVCAR-4 ovarian = system: OVCAR-4 ovarian
MOLT-4 leukemia = system: MOLT-4 leukemia
HOP-62 NSCLC = system: HOP-62 NSCLC
MDA-MB-435 = system: MDA-MB-435
IGROV1 ovarian = system: IGROV1 ovarian
HCT-116 colon = system: HCT-116 colon
MDA-MB-231 breast = system: MDA-MB-231 breast
SK-MEL-2 melanoma = system: SK-MEL-2 melanoma
K-562 leukemia = system: K-562 leukemia
SF-268 CNS = system: SF-268 CNS
PC-3 prostate = system: PC-3 prostate
MALME-3M melanoma = system: MALME-3M melanoma
SF-539 CNS = system: SF-539 CNS
HT29 colon = system: HT29 colon
HCT-15 colon = system: HCT-15 colon
NCI/ADR-RES ovarian = system: NCI/ADR-RES ovarian
CCRF-CEM leukemia = system: CCRF-CEM leukemia
NCI-H226 lung = system: NCI-H226 lung
A498 renal = system: A498 renal
UO-31 renal = system: UO-31 renal
OVCAR-5 ovarian = system: OVCAR-5 ovarian
SN12C renal = system: SN12C renal
COLO 205 colon = system: COLO 205 colon
NCI-H522 lung = system: NCI-H522 lung
U251 CNS = system: U251 CNS
MCF7 breast = system: MCF7 breast
HOP-92 NSCLC = system: HOP-92 NSCLC

Nc1nccc(-c2c(-c3ccc(F)cc3)ncn2CCCN2CCOCC2)n1
GI50 (DU-145 prostate): > 25 µM
TGI (DU-145 prostate): > 25 µM
GI50 (BT-549 breast): > 25 µM
TGI (BT-549 breast): > 25 µM
GI50 (A549 NSCLC): > 25 µM
TGI (A549 NSCLC): > 25 µM
GI50 (SW-620 colon): > 25 µM
TGI (SW-620 colon): > 25 µM
GI50 (SK-MEL-28 melanoma): > 25 µM
TGI (SK-MEL-28 melanoma): > 25 µM
GI50 (SR leukemia): > 25 µM
TGI (SR leukemia): > 25 µM
GI50 (M14 melanoma): > 25 µM
TGI (M14 melanoma): > 25 µM
GI50 (HCC-2998 colon): > 25 µM
TGI (HCC-2998 colon): > 25 µM
GI50 (HL-60(TB) leukemia): > 25 µM
TGI (HL-60(TB) leukemia): > 25 µM
GI50 (UACC-62 melanoma): > 25 µM
TGI (UACC-62 melanoma): > 25 µM
GI50 (SK-MEL-5 melanoma): > 25 µM
TGI (SK-MEL-5 melanoma): > 25 µM
GI50 (TK-10 renal): > 25 µM
TGI (TK-10 renal): > 25 µM
GI50 (UACC-257 melanoma): > 25 µM
TGI (UACC-257 melanoma): > 25 µM
GI50 (RXF 393 renal): > 17 µM
TGI (RXF 393 renal): > 25 µM
GI50 (RPMI-8226 leukemia): > 25 µM
TGI (RPMI-8226 leukemia): > 25 µM
GI50 (HS 578T breast): > 25 µM
TGI (HS 578T breast): > 25 µM
GI50 (NCI-H460 lung): > 25 µM
TGI (NCI-H460 lung): > 25 µM
GI50 (786-0 renal): > 25 µM
TGI (786-0 renal): > 25 µM
GI50 (LOX IMVI melanoma): > 25 µM
TGI (LOX IMVI melanoma): > 25 µM
GI50 (CAKI-1 renal): > 25 µM
TGI (CAKI-1 renal): > 25 µM
GI50 (KM12 colon): > 25 µM
TGI (KM12 colon): > 25 µM
GI50 (EKVX NSCLC): > 25 µM
TGI (EKVX NSCLC): > 25 µM
GI50 (OVCAR-3 ovarian): > 25 µM
TGI (OVCAR-3 ovarian): > 25 µM
GI50 (OVCAR-8 ovarian): > 25 µM
TGI (OVCAR-8 ovarian): > 25 µM
GI50 (T-47D breast): > 25 µM
TGI (T-47D breast): > 25 µM
GI50 (SK-OV-3 ovarian): > 25 µM
TGI (SK-OV-3 ovarian): > 25 µM
GI50 (NCI-H23 lung): > 25 µM
TGI (NCI-H23 lung): > 25 µM
GI50 (SF-295 CNS): > 25 µM
TGI (SF-295 CNS): > 25 µM
GI50 (ACHN renal): 19.4 µM
TGI (ACHN renal): > 25 µM
GI50 (SNB-75 CNS): > 25 µM
TGI (SNB-75 CNS): > 25 µM
GI50 (SNB-19 CNS): > 25 µM
TGI (SNB-19 CNS): > 25 µM
GI50 (OVCAR-4 ovarian): > 25 µM
TGI (OVCAR-4 ovarian): > 25 µM
GI50 (MOLT-4 leukemia): > 25 µM
TGI (MOLT-4 leukemia): > 25 µM
GI50 (HOP-62 NSCLC): > 25 µM
TGI (HOP-62 NSCLC): > 25 µM
GI50 (MDA-MB-435): > 25 µM
TGI (MDA-MB-435): > 25 µM
GI50 (IGROV1 ovarian): > 25 µM
TGI (IGROV1 ovarian): > 25 µM
GI50 (HCT-116 colon): > 25 µM
TGI (HCT-116 colon): > 25 µM
GI50 (MDA-MB-231 breast): > 25 µM
TGI (MDA-MB-231 breast): > 25 µM
GI50 (SK-MEL-2 melanoma): > 25 µM
TGI (SK-MEL-2 melanoma): > 25 µM
GI50 (K-562 leukemia): > 25 µM
TGI (K-562 leukemia): > 25 µM
GI50 (SF-268 CNS): > 25 µM
TGI (SF-268 CNS): > 25 µM
GI50 (PC-3 prostate): > 25 µM
TGI (PC-3 prostate): > 25 µM
GI50 (MALME-3M melanoma): > 25 µM
TGI (MALME-3M melanoma): > 25 µM
GI50 (SF-539 CNS): > 25 µM
TGI (SF-539 CNS): > 25 µM
GI50 (HT29 colon): > 25 µM
TGI (HT29 colon): > 25 µM
GI50 (HCT-15 colon): > 25 µM
TGI (HCT-15 colon): > 25 µM
GI50 (NCI/ADR-RES ovarian): > 25 µM
TGI (NCI/ADR-RES ovarian): > 25 µM
GI50 (CCRF-CEM leukemia): > 25 µM
TGI (CCRF-CEM leukemia): > 25 µM
GI50 (NCI-H226 lung): > 25 µM
TGI (NCI-H226 lung): > 25 µM
GI50 (A498 renal): > 19.2 µM
TGI (A498 renal): > 25 µM
GI50 (UO-31 renal): 11.6 µM
TGI (UO-31 renal): > 25 µM
GI50 (OVCAR-5 ovarian): > 25 µM
TGI (OVCAR-5 ovarian): > 25 µM
GI50 (SN12C renal): > 25 µM
TGI (SN12C renal): > 25 µM
GI50 (COLO 205 colon): > 25 µM
TGI (COLO 205 colon): > 25 µM
GI50 (NCI-H522 lung): > 25 µM
TGI (NCI-H522 lung): > 25 µM
GI50 (U251 CNS): > 25 µM
TGI (U251 CNS): > 25 µM
GI50 (MCF7 breast): > 21.6 µM
TGI (MCF7 breast): > 25 µM
GI50 (HOP-92 NSCLC): > 21.7 µM
TGI (HOP-92 NSCLC): > 25 µM
